Columns and labels:
[1] = target: T1, human indoleamine 2,3-dioxygenase 1 (hIDO1) (Homo sapiens, UniProt P14902); experiment: In-vitro human indoleamine 2,3-dioxygenase 1 (IDO1) enzyme assay; type: biochemical; details: for IC50: hIDO1 enzyme; for inhibition at 1 µM: hIDO1 enzyme at 1.0 μM concentration; for inhibition at 10 µM: hIDO1 enzyme at 10.0 μM concentration
T1 construct: His tag (N); purchased BPS Bioscience, San Diego, Calif., USA; host or cells: E. coli
Summary of the method: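 His-tagged hIDO1 (E. coli, 50 ng) incubated with 80 μM tryptophan, 10 mM ascorbate, 10 μM methylene blue, catalase and 0.01% Tween-20 in 50 mM sodium phosphate pH 6.5, 60 min, 37 °C. Piperidine converts N-formylkynurenine to fluorescent NFK-PIP (ex 400/em 500 nm); IC50 by nonlinear regression.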

[2] = target: T2, human tryptophan 2,3-dioxygenase (hTDO) (Homo sapiens, UniProt P48775); experiment: In-vitro human tryptophan 2,3-dioxygenase (TDO) enzyme assay; type: biochemical; details: for inhibition at 1 µM: hTDO enzyme at 1.0 μM concentration; for inhibition at 10 µM: hTDO enzyme at 10.0 μM concentration
T2 construct: His tag (N); purchased BPS Bioscience, San Diego, Calif., USA; host or cells: E. coli
T2 sequence (P48775 whole entry): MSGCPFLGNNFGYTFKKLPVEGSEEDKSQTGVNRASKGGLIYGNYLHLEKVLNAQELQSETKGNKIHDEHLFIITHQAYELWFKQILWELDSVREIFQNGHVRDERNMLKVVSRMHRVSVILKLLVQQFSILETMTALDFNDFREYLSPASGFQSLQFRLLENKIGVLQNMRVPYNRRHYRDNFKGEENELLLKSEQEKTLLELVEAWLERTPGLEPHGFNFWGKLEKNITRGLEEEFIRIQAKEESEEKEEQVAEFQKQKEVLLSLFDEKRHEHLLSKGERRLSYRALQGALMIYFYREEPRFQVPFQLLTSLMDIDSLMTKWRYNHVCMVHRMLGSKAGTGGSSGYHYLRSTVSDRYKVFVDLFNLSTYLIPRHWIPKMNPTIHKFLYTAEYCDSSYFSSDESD
Summary of the method: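 N-His-tagged hTDO expressed in E. coli (125 ng) incubated with 200 μM L-tryptophan, 100 mM sodium phosphate pH 7.0, 0.01% Tween-20, 100 μM ascorbate, 60 min at 37 °C. Product converted with 200 mM piperidine (65 °C, 20 min) to NFK-PIP, fluorescence 400/500 nm; IC50 by nonlinear regression.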

T1 sequence (P14902 whole entry): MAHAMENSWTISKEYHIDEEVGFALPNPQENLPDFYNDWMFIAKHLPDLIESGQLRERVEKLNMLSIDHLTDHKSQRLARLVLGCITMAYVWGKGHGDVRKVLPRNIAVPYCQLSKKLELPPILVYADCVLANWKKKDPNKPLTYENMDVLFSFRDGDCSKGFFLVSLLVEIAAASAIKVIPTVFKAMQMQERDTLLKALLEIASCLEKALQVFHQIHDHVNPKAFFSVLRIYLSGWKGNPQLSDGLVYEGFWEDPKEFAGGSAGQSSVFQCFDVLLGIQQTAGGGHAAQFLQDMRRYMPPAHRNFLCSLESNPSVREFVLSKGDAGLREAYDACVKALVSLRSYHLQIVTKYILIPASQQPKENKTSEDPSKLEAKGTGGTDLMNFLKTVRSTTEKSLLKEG

| SMILES | IC50 [1] [nM] | inhibition at 1 µM [1] [%] | inhibition at 10 µM [1] [%] | inhibition at 1 µM [2] [%] | inhibition at 10 µM [2] [%] |
| --- | --- | --- | --- | --- | --- |
| CC1=C(c2ccccc2)C(CC(=O)c2ccc(-c3ccccc3)cc2)n2cncc21 (single isomer, unassigned; isomer-i) [Example 42, 1-([1,1′-biphenyl]-4-yl)-2-(7-methyl-6-phenyl-5H-pyrrolo[1,2-c]imidazol-5-yl)ethan-1-one, Isomer-I] | < 500 | ≥ 50 | ≥ 50 | ≥ 50 |  |
| CC1=C(c2ccccc2)C(CC(=O)c2cccc(-c3ccccc3F)c2)n2cncc21 (stereo not shown) [Example 70] |  | ≥ 50 | ≥ 50 | ≥ 50 |  |
| CC1=C(c2ccccc2)C(CC(O)C2CCC(O)CC2)n2cncc21 (single isomer, unassigned) [Example 121] |  | ≤ 50 | ≥ 50 | ≤ 50 |  |
| CC1=C(c2ccccc2)C(CC(O)C2CCN(C(=O)Nc3ccc(F)c(Cl)c3)CC2)n2cncc21 (stereo not shown) [Example 182] | < 500 | ≥ 50 | ≥ 50 | ≤ 50 |  |
| CC1=C(c2ccccc2)C(CC(O)C2CCC(c3ccccc3)CC2)n2cncc21 (stereo not shown) [Example 186] | < 500 | ≥ 50 | ≥ 50 | ≤ 50 |  |
| CC1=C(c2ccccc2)C(CC(O)C2CCN(C(=O)c3ccccn3)CC2)n2cncc21 (single isomer, unassigned) [Example 160] |  | ≤ 50 | ≤ 50 | ≤ 50 |  |
| COc1ccccc1C(=O)CC1C(c2ccccc2)=C(C)c2cncn21 (stereo not shown) [Example 32, 1-(2-methoxyphenyl)-2-(7-methyl-6-phenyl-5H-pyrrolo[1,2-c]imidazol-5-yl)ethan-1-one] |  | ≤ 50 | ≤ 50 |  | ≥ 50 |
| CCOC(=O)CCC(=O)CC1C(c2ccccc2)=C(C)c2cncn21 (stereo not shown) [Example 173, Ethyl 5-(7-methyl-6-phenyl-5H-pyrrolo[1,2-c]imidazol-5-yl)-4-oxopentanoate] |  | ≤ 50 | ≥ 50 | ≤ 50 |  |
| OC(CC1C2=C(CCCC2)c2cncn21)c1ccccc1 (stereo not shown) [Example 2, 1-Phenyl-2-(6,7,8,9-tetrahydro-5H-imidazo[5,1-a]isoindol-5-yl)-ethanol] |  |  | ≤ 50 |  | ≥ 50 |
| CC1=C(c2ccccc2)C(CC(=O)N2CCC(O)CC2)n2cncc21 (stereo not shown) [Compound 175, 1-(4-Hydroxypiperidin-1-yl)-2-(7-methyl-6-phenyl-5H-pyrrolo[1,2-c]imidazol-5-yl)ethan-1-one] |  | ≤ 50 | ≤ 50 | ≤ 50 |  |
| CC1=C(c2ccccc2)C(CC(=O)c2ccc(C3CCCCC3)cc2)n2cncc21 (stereo not shown) [Example 73] |  | ≤ 50 | ≥ 50 | ≤ 50 |  |
| CC1=C(c2ccccc2)C(CC(O)C2CCN(c3ccccn3)CC2)n2cncc21 (stereo not shown) [Example 188, 2-(7-methyl-6-phenyl-5H-pyrrolo[1,2-c]imidazol-5-yl)-1-(1-(pyridin-2-yl)piperidin-4-yl)ethan-1-ol] |  | ≤ 50 | ≥ 50 | ≤ 50 |  |
| CC1=C(c2ccccc2)C(CC(O)C2CCN(C(=O)c3cccnc3)CC2)n2cncc21 (stereo not shown) [Example 157] | > 500 | ≥ 50 | ≥ 50 | ≤ 50 |  |
| CC1=C(c2ccccc2)C(CC(O)C2CCN(C(=O)Cc3ccccc3F)CC2)n2cncc21 (stereo not shown) [Example 139, 2-(2-Fluorophenyl)-1-(4-(1-hydroxy-2-(7-methyl-6-phenyl-5H-pyrrolo[1,2-c]imidazol-5-yl)ethyl)piperidin-1-yl)ethan-1-one] | < 500 | ≥ 50 | ≥ 50 | ≥ 50 |  |
| CC1=C(c2ccccc2)C(CC(=O)C2CCN(Cc3ccccc3)CC2)n2cncc21 (stereo not shown) [Example 140] |  | ≤ 50 | ≤ 50 | ≤ 50 |  |
| CC1=C(c2ccccc2)C(CC(O)CCC(=O)N2CCC(O)CC2)n2cncc21 (stereo not shown) [Example 174, 4-Hydroxy-1-(4-hydroxypiperidin-1-yl)-5-(7-methyl-6-phenyl-5H-pyrrolo[1,2-c]imidazol-5-yl)pentan-1-one] |  | ≤ 50 | ≥ 50 | ≤ 50 |  |
| CC1=C(c2ccccc2)C(CC(=O)C2CCC(C(=O)NC3CCCCC3)CC2)n2cncc21 (stereo not shown) [Example 123] |  | ≤ 50 | ≥ 50 | ≥ 50 |  |
| CC1=C(c2ccccc2)C(CC(=O)c2ccc(F)c(Cl)c2)n2cncc21 (stereo not shown) [Example 39, 1-(3-chloro-4-fluorophenyl)-2-(7-methyl-6-phenyl-5H-pyrrolo[1,2-c]imidazol-5-yl)ethan-1-one] | < 500 | ≥ 50 | ≥ 50 | ≥ 50 |  |

| SMILES | IC50 [1] [nM] | inhibition at 1 µM [1] [%] | inhibition at 10 µM [1] [%] | inhibition at 1 µM [2] [%] | inhibition at 10 µM [2] [%] |
| --- | --- | --- | --- | --- | --- |
| COc1cccc(C(=O)CC2C(c3ccccc3)=C(C)c3cncn32)c1 (stereo not shown) [Example 33, 1-(3-Methoxy-phenyl)-2-(7-methyl-6-phenyl-5H-pyrrolo[1,2-c]imidazol-5-yl)-ethanone] |  | ≤ 50 | ≥ 50 |  | ≥ 50 |
| CC1=C(c2ccccc2)C(CC(O)C2CCN(S(=O)(=O)C3CCCCC3)CC2)n2cncc21 (stereo not shown) [Example 163, 1-(1-Cyclohexanesulfonyl-piperidin-4-yl)-2-(7-methyl-6-phenyl-5H-pyrrolo[1,2-c]imidazol-5-yl)-ethanol] | < 500 | ≥ 50 | ≥ 50 | ≥ 50 |  |
| CC1=C(c2ccccc2)C(CC(O)c2ccccc2)n2cncc21 (stereo not shown) [Example 12, 2-(7-Methyl-6-phenyl-5H-pyrrolo[1,2-c]imidazol-5-yl)-1-phenyl-ethanol] | > 500 |  | ≥ 50 |  | ≥ 50 |
| CC1=C(c2ccccc2)C(CC(O)C2CCN(C(=O)OCc3ccccc3)CC2)n2cncc21 (stereo not shown) [Example 137, 4-[1-Hydroxy-2-(7-methyl-6-phenyl-5H-pyrrolo[1,2-c]imidazol-5-yl)-ethyl]-piperidine-1-carboxylic acid benzyl ester] | < 500 | ≥ 50 | ≥ 50 | ≥ 50 |  |
| CC1=C(c2ccccc2)C(CC(=O)C2CCC(=NO)CC2)n2cncc21 (stereo not shown) [Example 177, 4-[2-(7-Methyl-6-phenyl-5H-pyrrolo[1,2-c]imidazol-5-yl)-acetyl]-cyclohexanone oxime] |  | ≤ 50 | ≥ 50 | ≥ 50 |  |
| CC1=C(c2ccccc2)C(CC(O)C2CCN(C(=O)Nc3cccc(Cl)c3)CC2)n2cncc21 (stereo not shown) [Example 181] | < 500 | ≥ 50 | ≥ 50 | ≤ 50 |  |
| CC1=C(c2ccccc2)C(CC(O)C2CCN(C(=O)NC3CCCCC3)CC2)n2cncc21 (stereo not shown) [Example 179] | < 500 | ≥ 50 | ≥ 50 | ≤ 50 |  |
| CC1=C(c2ccccc2)C(CC(=O)C2CC2)n2cncc21 (stereo not shown) [Example 26, 1-Cyclopropyl-2-(7-methyl-6-phenyl-5H-pyrrolo[1,2-c]imidazol-5-yl)-ethanone] |  | ≤ 50 | ≥ 50 | ≥ 50 | ≥ 50 |
| CC1=C(c2ccccc2)C(C[C@H](O)C2CCC(C(=O)Nc3ccc(Cl)cc3C)CC2)n2cncc21 (stereo partly shown) [Example 120] | < 500 | ≥ 50 | ≥ 50 | ≥ 50 |  |
| CC1=C(c2ccccc2)C(CC(=O)c2ccc(-c3ccsc3)cc2)n2cncc21 (stereo not shown) [Example 56] | < 500 | ≥ 50 | ≥ 50 | ≤ 50 |  |
| CCOC(=O)N1CCC(C(=O)CC2C(c3ccccc3)=C(C)c3cncn32)CC1 (stereo not shown) [Example 146] |  | ≤ 50 | ≥ 50 | ≤ 50 |  |
| CC1=C(c2ccccc2)C(CC(O)C2CCN(S(C)(=O)=O)CC2)n2cncc21 (stereo not shown) [Example 165] |  | ≤ 50 | ≥ 50 | ≤ 50 |  |
| CC1=C(c2ccccc2)C(CC(=O)c2ccc(-c3ccc(C)s3)cc2)n2cncc21 (stereo not shown) [Example 64] | < 500 | ≥ 50 | ≥ 50 | ≤ 50 |  |
| CC1=C(c2ccc(C)cc2)C(CC(O)C2CCCCC2)n2cncc21 (stereo not shown) [Example 87, 1-Cyclohexyl-2-(7-methyl-6-(p-tolyl)-5H-pyrrolo[1,2-c]imidazol-5-yl)ethan-1-ol] |  | ≤ 50 | ≥ 50 | ≥ 50 |  |
| CC1=C(c2ccccc2)C(CC(O)C2CCN(C(=O)c3ccccc3)CC2)n2cncc21 (stereo not shown) [Example 144] | < 500 | ≥ 50 | ≥ 50 | ≤ 50 |  |
| CC1=C(c2ccccc2)C(CC(=O)C2CCC(C(=O)O)CC2)n2cncc21 (stereo not shown) [Example 130] |  | ≤ 50 | ≤ 50 | ≤ 50 |  |
| CC1=C(c2ccccc2)C(CC(=O)c2ccc3ccccc3c2)n2cncc21 (stereo not shown) [Example 25, 2-(7-Methyl-6-phenyl-5H-pyrrolo[1,2-c]imidazol-5-yl)-1-naphthalen-2-yl-ethanone] | < 500 | ≥ 50 | ≥ 50 | ≥ 50 | ≥ 50 |
